Type in all cases: cell-based
In test [1] the target is T1, human GLP-1 receptor (GLP-1R) (Homo sapiens, UniProt P43220).
T1 construct: expressed in transfected cells
The test is described as follows: cAMP assay, human GLP-1R cells. The following applies: for EC50: mean of n1 and n2. As to the method: Sample dilutions are made in duplicate.
A frozen cryo-vial of cells expressing the receptor of interest is thawed rapidly in a water-bath, transferred to pre-warmed assay buffer and spun at 240×g for 5 minutes. Cells are re-suspended in assay buffer at a batch-dependent optimized concentration (e.g. hGCGR cells at 2×10^5 cells/ml, hGLP-1R and hGIPR cells at 1×10^5 cells/ml).
To this, 5 μL cell suspension is added and the plates incubated at room temperature for 30 minutes.
cAMP levels are measured using a commercially available cAMP dynamic 2 HTRF kit (Cisbio, Cat #62AM4PEJ), following the two step protocol as per manufacturer's recommendations. In brief; anti-cAMP cryptate (donor fluorophore) and cAMP-d2 (acceptor fluorophore) are made up separately by diluting each 1/20 in conjugate & lysis buffer provided in the kit. 5 μL anti-cAMP cryptate is added to wells of the assay plate, and 5 μL cAMP-d2 is added to wells except non-specific binding (NSB) wells, to which conjugate and lysis buffer are added. […] EC50 values of the synthetic peptides determined in cAMP assays are then determined.
Data is transformed to % Delta F as described in the manufacturer's guidelines and analyzed by 4-parameter logistic fit to determine EC50 values. […] To compare the balance of activities at the GLP-1R and GCGR between different peptides and across different conditions, these can be correlated, where the EC50's are related to those of comparator peptides.
In general terms: Changes in cAMP serve as a functional read-out for many G protein-coupled receptors.

Test [2] has as its target T2, human glucose-dependent insulinotropic peptide receptor (GIPR) (Homo sapiens, UniProt P48546).
T2 construct: expressed in transfected cells
T2 sequence (P48546 22-466): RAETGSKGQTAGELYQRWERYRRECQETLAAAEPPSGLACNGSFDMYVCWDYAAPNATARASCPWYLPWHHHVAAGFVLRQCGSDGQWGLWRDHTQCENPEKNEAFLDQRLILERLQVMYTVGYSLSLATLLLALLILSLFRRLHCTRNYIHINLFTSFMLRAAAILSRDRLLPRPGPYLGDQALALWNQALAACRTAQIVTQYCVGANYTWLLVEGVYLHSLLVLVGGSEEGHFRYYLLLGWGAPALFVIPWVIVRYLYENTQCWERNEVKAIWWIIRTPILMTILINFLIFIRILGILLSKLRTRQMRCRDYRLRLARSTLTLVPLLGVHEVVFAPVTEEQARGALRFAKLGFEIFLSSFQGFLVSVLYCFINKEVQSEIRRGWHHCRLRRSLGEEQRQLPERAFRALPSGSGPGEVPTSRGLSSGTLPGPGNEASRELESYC
The test is described as follows: cAMP assay, human GIPR cells. In outline:
(§1)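 Peptide-stimulated cAMP measured by two-step HTRF after a 30 min room-temperature incubation with receptor-expressing cells (hGLP-1R, hGIPR at 1×10^5 cells/ml; hGCGR at 2×10^5 cells/ml). Duplicate dilutions; EC50 from 4-parameter logistic fit of % Delta F.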

Test [3] has as its target T3, human glucagon receptor (GCGR) (Homo sapiens, UniProt P47871).
T3 construct: expressed in transfected cells
The test is described as follows: cAMP assay, human GCGR cells. Put shortly:
as §1

Setting [4] is: cAMP assay, first determination (n1), read-out: Primary assay EC50 GLP-1R n1.
Setting [5] is: cAMP assay, second determination (n2), read-out: Primary assay EC50 GLP-1R n2.
Setting [6] is: cAMP assay, first determination (n1), read-out: Primary assay EC50 GIP-R (n1).
Setting [7] is: cAMP assay, second determination (n2), read-out: Primary assay EC50 GIP-R (n2).
The mark [8] stands for this setting: cAMP assay, first determination (n1), read-out: Primary assay EC50 Gluc-R (n1).
[9] abbreviates: cAMP assay, second determination (n2), read-out: Primary assay EC50 Gluc-R (n2).

The structures appear in SMILES notation. pEC50: −log10 of the molar value. Where two headings read alike, the source gives them in different places. Numbered stars: 1 amine (or outer) side, 2 acyl side, 3 side chain; on linkers, the order of the positions; unused ones are H or OH. Square brackets hold non-standard residues; d marks the D form. Side chains are listed from the residue outwards. Peptide text beside a SMILES is read from it. * marks the point of attachment. γGlu = O=C(O)[C@H](CCC(=O)[*:2])N[*:1]; αMeF = C[C@](N)(Cc1ccccc1)C(=O)O; αMeK = C[C@](N)(CCCCN)C(=O)O; Lauroyl = CCCCCCCCCCCC(=O)*; αMeS = C[C@](N)(CO)C(=O)O; AEEA = NCCOCCOCC(=O)O; Aib = CC(C)(N)C(=O)O

T3 sequence (P47871 26-477): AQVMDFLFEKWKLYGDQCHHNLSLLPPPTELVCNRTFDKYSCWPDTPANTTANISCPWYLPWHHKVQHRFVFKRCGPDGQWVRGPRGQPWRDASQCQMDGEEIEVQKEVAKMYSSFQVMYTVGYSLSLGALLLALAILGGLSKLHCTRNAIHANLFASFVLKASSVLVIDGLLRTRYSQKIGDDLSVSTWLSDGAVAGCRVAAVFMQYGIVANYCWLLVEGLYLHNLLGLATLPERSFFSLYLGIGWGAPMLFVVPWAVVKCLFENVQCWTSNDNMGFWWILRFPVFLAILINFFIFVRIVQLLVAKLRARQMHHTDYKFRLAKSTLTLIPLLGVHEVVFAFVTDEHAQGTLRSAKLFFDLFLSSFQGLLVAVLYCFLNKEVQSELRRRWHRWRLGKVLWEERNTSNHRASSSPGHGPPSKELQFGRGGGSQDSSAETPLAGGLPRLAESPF
T1 sequence (P43220 24-463): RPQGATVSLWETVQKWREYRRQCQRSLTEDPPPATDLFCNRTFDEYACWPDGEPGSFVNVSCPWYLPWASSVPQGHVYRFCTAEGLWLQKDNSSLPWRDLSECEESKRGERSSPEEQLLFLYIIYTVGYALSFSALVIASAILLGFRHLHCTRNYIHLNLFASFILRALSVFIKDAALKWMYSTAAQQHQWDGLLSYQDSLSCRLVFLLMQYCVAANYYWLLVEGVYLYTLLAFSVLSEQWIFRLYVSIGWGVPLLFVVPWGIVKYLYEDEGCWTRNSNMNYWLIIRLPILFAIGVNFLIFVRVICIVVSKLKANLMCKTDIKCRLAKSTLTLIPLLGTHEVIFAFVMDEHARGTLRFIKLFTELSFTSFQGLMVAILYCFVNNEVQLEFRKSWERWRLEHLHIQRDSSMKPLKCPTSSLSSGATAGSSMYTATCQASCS

`CC[C@H](C)[C@H](NC(=O)[C@](C)(Cc1ccccc1)NC(=O)[C@H](CCC(=O)O)NC(=O)[C@H](CCCCNC(=O)COCCOCCNC(=O)CCCCCCCCCCCCCCCCC(=O)O)NC(=O)[C@H](C)NC(=O)[C@H](C)NC(=O)[C@H](CCC(=O)O)NC(=O)CNC(=O)[C@H](CCC(=O)O)NC(=O)[C@H](CC(C)C)NC(=O)[C@](C)(Cc1ccccc1)NC(=O)[C@H](CO)NC(=O)[C@](C)(CO)NC(=O)[C@@H](NC(=O)[C@H](CC(=O)O)NC(=O)[C@H](CO)NC(=O)[C@@H](NC(=O)[C@](C)(Cc1ccccc1)NC(=O)[C@H](CO)NC(=O)CNC(=O)[C@H](CCC(=O)O)NC(=O)C(C)(C)NC(=O)[C@@H](N)Cc1c[nH]cn1)[C@@H](C)O)C(C)C)C(=O)N[C@@H](C)C(=O)N[C@@](C)(Cc1ccccc1)C(=O)N[C@H](C(=O)N[C@H](C(=O)N[C@@](C)(CCCCN)C(=O)NCC(=O)NCC(N)=O)C(C)C)C(C)C` [compound 161]: the pEC50 (usually −log10 of the EC50, conventionally taken in molar units) was 9.80 in test [1] (setting [4]); 10.21 in test [1] (setting [5]); at most 7.57 in test [2] (setting [6]); at most 7.57 in test [2] (setting [7]); at most 7.57 in test [3] (setting [8]); at most 7.57 in test [3] (setting [9]). Also, the EC50 in test [1] (read-out: Mean pM GLP-1R) is 112 pM.

For `CCCCCCCCCCCC(=O)NCCCCCC(=O)NCCCCCC(=O)NCCCCCC(=O)NCCCC[C@H](NC(=O)[C@H](C)NC(=O)[C@H](C)NC(=O)[C@H](CCC(=O)O)NC(=O)CNC(=O)[C@H](CCC(=O)O)NC(=O)[C@H](CC(C)C)NC(=O)[C@](C)(Cc1ccccc1)NC(=O)[C@H](CO)NC(=O)[C@](C)(CO)NC(=O)[C@@H](NC(=O)[C@H](CC(=O)O)NC(=O)[C@H](CO)NC(=O)[C@@H](NC(=O)[C@](C)(Cc1ccccc1)NC(=O)[C@H](CO)NC(=O)CNC(=O)[C@H](CCC(=O)O)NC(=O)C(C)(C)NC(=O)[C@@H](N)Cc1c[nH]cn1)[C@@H](C)O)C(C)C)C(=O)N[C@@H](CCC(=O)O)C(=O)N[C@@](C)(Cc1ccccc1)C(=O)N[C@H](C(=O)N[C@@H](C)C(=O)N[C@@](C)(Cc1ccccc1)C(=O)N[C@H](C(=O)N[C@H](C(=O)N[C@@](C)(CCCCN)C(=O)NCC(=O)NCC(N)=O)C(C)C)C(C)C)[C@@H](C)CC` [compound 133], the pEC50 in test [1] (setting [4]) is 10.47; in test [1] (setting [5]), 10.60; in test [2] (setting [6]), at most 7.57; in test [2] (setting [7]) it was at most 7.57; in test [3] (setting [8]), at most 7.57; in test [3] (setting [9]), at most 7.57. In test [1] (read-out: Mean pM GLP-1R), the EC50 is 29.4 pM.

For `CCCCCCCCCCCCCCCC(=O)N[C@@H](CCC(=O)NCCCC[C@H](NC(=O)[C@H](CCC(=O)O)NC(=O)[C@](C)(CCCCN)NC(=O)[C@H](C)NC(=O)[C@H](C)NC(=O)[C@H](CCC(=O)O)NC(=O)CNC(=O)[C@H](CCC(=O)O)NC(=O)[C@H](CC(C)C)NC(=O)[C@](C)(Cc1ccccc1)NC(=O)[C@H](CO)NC(=O)[C@](C)(CO)NC(=O)[C@@H](NC(=O)[C@H](CC(=O)O)NC(=O)[C@H](CO)NC(=O)[C@@H](NC(=O)[C@](C)(Cc1ccccc1)NC(=O)[C@H](CO)NC(=O)CNC(=O)[C@H](CCC(=O)O)NC(=O)C(C)(C)NC(=O)[C@@H](N)Cc1c[nH]cn1)[C@@H](C)O)C(C)C)C(=O)N[C@H](C(=O)N[C@@H](C)C(=O)N[C@@](C)(Cc1ccccc1)C(=O)N[C@H](C(=O)N[C@H](C(=O)N[C@@](C)(CCCCN)C(=O)NCC(=O)NCC(N)=O)C(C)C)C(C)C)[C@@H](C)CC)C(=O)O` [compound 78], the negative logarithm of the EC50 (pEC50) was 10.74 in test [1] (setting [4]); 11.03 in test [1] (setting [5]); at most 7.55 in test [2] (setting [6]); at most 7.55 in test [2] (setting [7]); at most 7.55 in test [3] (setting [8]); at most 7.55 in test [3] (setting [9]). In addition, the EC50 in test [1] (read-out: Mean pM GLP-1R) is 14 pM.

As to `CCCCCCCCCCCC(=O)N[C@@H](CCC(=O)NCCOCCOCC(=O)NCCOCCOCC(=O)NCCCC[C@H](NC(=O)[C@H](CCC(=O)O)NC(=O)CNC(=O)[C@H](CCC(=O)O)NC(=O)[C@H](CC(C)C)NC(=O)[C@H](CCCCNC(=O)COCCOCCNC(=O)COCCOCCNC(=O)CC[C@H](NC(=O)CCCCCCCCCCC)C(=O)O)NC(=O)[C@H](CO)NC(=O)[C@](C)(CO)NC(=O)[C@@H](NC(=O)[C@H](CC(=O)O)NC(=O)[C@H](CO)NC(=O)[C@@H](NC(=O)[C@](C)(Cc1ccccc1)NC(=O)[C@H](CO)NC(=O)CNC(=O)[C@H](CCC(=O)O)NC(=O)C(C)(C)NC(=O)[C@@H](N)Cc1c[nH]cn1)[C@@H](C)O)C(C)C)C(=O)N[C@@H](C)C(=O)N[C@@](C)(CCCCN)C(=O)N[C@@H](CCC(=O)O)C(=O)N[C@@H](Cc1ccccc1)C(=O)N[C@H](C(=O)N[C@@H](CCCCNC(=O)COCCOCCNC(=O)COCCOCCNC(=O)CC[C@H](NC(=O)CCCCCCCCCCC)C(=O)O)C(=O)N[C@@H](Cc1ccccc1)C(=O)N[C@H](C(=O)N[C@H](C(=O)N[C@@H](CCC(=O)O)C(=O)NCC(=O)NCC(N)=O)C(C)C)C(C)C)[C@@H](C)CC)C(=O)O` [compound 449] (H-H[Aib]EGS[αMeF]TSDV[αMeS]SK([AEEA-AEEA-γGlu-Lauroyl])LEGEK([AEEA-AEEA-γGlu-Lauroyl])A[αMeK]EFIK([AEEA-AEEA-γGlu-Lauroyl])FVVEGG-NH2; N-terminus assumed), in test [1] (tris-lipidated peptides, read-out: Primary assay EC50 Mean pM GLP-1R), the EC50 stood at 246 pM. Also, the negative-log EC50 (pEC50) in test [1] (tris-lipidated peptides, replicate n1, read-out: Primary assay EC50 GLP-1R n1) is 9.67; in test [1] (tris-lipidated peptides, replicate n2, read-out: Primary assay EC50 GLP-1R n2), 9.56; in test [2] (tris-lipidated peptides, first replicate, read-out: Primary assay EC50 GIP-R (n1)), 7.71; in test [3] (tris-lipidated peptides, first replicate, read-out: Primary assay EC50 Gluc-R (n1)), 7.71.

On to `CCCCCCCCCCCCCCCCCC(=O)N[C@@H](CCC(=O)NCCCC[C@H](NC(=O)[C@H](C)NC(=O)[C@H](C)NC(=O)[C@H](CCC(=O)O)NC(=O)CNC(=O)[C@H](CCC(=O)O)NC(=O)[C@H](CC(C)C)NC(=O)[C@](C)(Cc1ccccc1)NC(=O)[C@H](CO)NC(=O)[C@](C)(CO)NC(=O)[C@@H](NC(=O)[C@H](CC(=O)O)NC(=O)[C@H](CO)NC(=O)[C@@H](NC(=O)[C@](C)(Cc1ccccc1)NC(=O)[C@H](CO)NC(=O)CNC(=O)[C@H](CCC(=O)O)NC(=O)C(C)(C)NC(=O)[C@@H](N)Cc1c[nH]cn1)[C@@H](C)O)C(C)C)C(=O)N[C@@H](CCC(=O)O)C(=O)N[C@@](C)(Cc1ccccc1)C(=O)N[C@H](C(=O)N[C@@H](C)C(=O)N[C@@](C)(Cc1ccccc1)C(=O)N[C@H](C(=O)N[C@H](C(=O)N[C@@](C)(CCCCN)C(=O)NCC(=O)NCC(N)=O)C(C)C)C(C)C)[C@@H](C)CC)C(=O)O` [compound 146], for which the pEC50 was 10.02 in test [1] (setting [4]); 10.38 in test [1] (setting [5]); at most 7.55 in test [2] (setting [6]); at most 7.55 in test [2] (setting [7]); at most 7.55 in test [3] (setting [8]); at most 7.55 in test [3] (setting [9]). Besides, the EC50 in test [1] (read-out: Mean pM GLP-1R) amounted to 69 pM.

Values taken from patent US10414811B2, “Protease-resistant lipidated GLP-1 analogs” (MEDIMMUNE LIMITED, priority 2015, dated 2019).
